The target of data set [1] is BaPDH (WT-BaPDH, full-length ACT-containing prephenate dehydrogenase) (Bacillus anthracis, UniProt Q81P63). Nature of the data set: biochemical.
Data set [2] relates to O=C(O)C(=O)CC1(C(=O)O)C=CC(O)C=C1. Briefly: purified protein. To be noted: pH 7.5.

BaPDH (WT-BaPDH, full-length ACT-containing prephenate dehydrogenase), sequence (Q81P63 1-378 limits assumed): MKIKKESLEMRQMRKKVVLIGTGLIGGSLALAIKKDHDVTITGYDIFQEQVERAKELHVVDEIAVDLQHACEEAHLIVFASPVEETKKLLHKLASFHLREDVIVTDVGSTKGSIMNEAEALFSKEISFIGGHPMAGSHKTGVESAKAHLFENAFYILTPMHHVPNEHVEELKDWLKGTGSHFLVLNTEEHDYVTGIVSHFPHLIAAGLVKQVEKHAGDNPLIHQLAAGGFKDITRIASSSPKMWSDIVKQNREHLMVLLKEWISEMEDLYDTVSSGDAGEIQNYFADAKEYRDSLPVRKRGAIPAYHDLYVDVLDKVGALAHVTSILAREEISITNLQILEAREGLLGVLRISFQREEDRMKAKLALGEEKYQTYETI

The compound `N[C@@H](Cc1ccc(O)cc1)C(=O)O` [tyrosine] gave a Ki in data set [1] of 1500 ± 200 nM.

Consider “BaPDH (WT-BaPDH, full-length ACT-containing prephenate dehydrogenase) (Bacillus anthracis)”, for which the Km in data set [2] was determined as 78 ± 10 µM.

(Values after publication doi:10.1101/2025.10.30.685691v1 (biorxiv, 2025).)
